Here are results for five molecules from US5017581A, “Pyridonecarboxylic acids and their anti-bacterial compositions” (Shionogi & Co., Ltd., priority 1988, dated 1991).

Data set [1] relates to Staphylococcus aureus Smith. The data set can be described thus: Antibacterial spectrum, MIC (method of the Japan Society of Chemotherapy), A. It is filed as cell-based. The following applies: 10^6 cells/ml, read-out: MIC (minimum grouth inhibitory concentration). Here is the method: The antibacterial activity was determined by measuring minimum grouth inhibitory concentrations (MICs) in accordance with the method as designated by the Japan Society of Chemotherapy. A, B, C, and D in the table indicate the following meanings: A: Staphylococcus aureus Smith The test microorganisms were used at 10^6 cells/ml.

Data set [2] relates to Staphylococcus aureus SR 14 (R). Briefly: Antibacterial spectrum, MIC (method of the Japan Society of Chemotherapy), B. In kind it is cell-based. Particulars: 10^6 cells/ml, read-out: MIC (minimum grouth inhibitory concentration). Here is the method:
The antibacterial activity was determined by measuring minimum grouth inhibitory concentrations (MICs) in accordance with the method as designated by the Japan Society of Chemotherapy.
A, B, C, and D in the table indicate the following meanings:
B: Staphylococcus aureus SR 14 (R)
The test microorganisms were used at 10^6 cells/ml.

The subject of data set [3] is Escherichia coli 7437. The data set can be described thus: Antibacterial spectrum, MIC (method of the Japan Society of Chemotherapy), C. In kind it is cell-based. Particulars: 10^6 cells/ml, read-out: MIC (minimum grouth inhibitory concentration). Here is the method:
The antibacterial activity was determined by measuring minimum grouth inhibitory concentrations (MICs) in accordance with the method as designated by the Japan Society of Chemotherapy. A, B, C, and D in the table indicate the following meanings: C: Escherichia coli 7437 The test microorganisms were used at 10^6 cells/ml.

The test system of data set [4] is Escherichia coli PC 51149 B. Briefly: Antibacterial spectrum, MIC (method of the Japan Society of Chemotherapy), D. Particulars: PC51149B, 10^6 cells/ml, read-out: MIC (minimum grouth inhibitory concentration). In kind it is cell-based. As to the method:
The antibacterial activity was determined by measuring minimum grouth inhibitory concentrations (MICs) in accordance with the method as designated by the Japan Society of Chemotherapy. A, B, C, and D in the table indicate the following meanings: D: Escherichia coli PC 51149 B The test microorganisms were used at 10^6 cells/ml.

Data set [5] is described as follows: Convulsion and psychotropic action in mice after oral administration. Particulars: orally, dose of 10 mg. In kind it is in vivo.

In brackets after ≈: the same amount, converted by molar mass. Bounds are passed on as bounds.

Turning to `C=C1CN(c2c(F)c(N)c3c(=O)c(C(=O)O)cn(C4CC4)c3c2F)CC1N` (stereo not drawn) [Compound I-3, 1-Cyclopropyl-5-amino-6,8-difluoro-7-(3-amino-4-methylenepyrrolydin-1-yl)-1,4-dihydro-4-oxo-3-quinolinecarboxylic acid], the MIC in data set [1] was 0.02 µg/mL (≈ 0.0531 µM); in data set [2] it was 0.05 µg/mL (≈ 0.133 µM); in data set [3], less than 0.003 µg/mL; in data set [4], less than 0.003 µg/mL.
On to `C=C1CN(c2c(F)cc3c(=O)c(C(=O)O)cn(C4CC4)c3c2F)CC1N` (stereo not drawn) [Compound I-1, 1-Cyclopropyl-6,8-difluoro-7-(3-amino-4-methylenepyrrolidin-1-yl)-1,4-dihydro-4-oxo-3-quinolinecarboxylic acid], for which the MIC in data set [1] is 0.05 µg/mL (≈ 0.138 µM); in data set [2] it was 0.05 µg/mL (≈ 0.138 µM); in data set [3] it was less than 0.003 µg/mL; in data set [4] it was less than 0.003 µg/mL. In addition, the “convulsion and psychotropic action” value in data set [5] is reported as “neither convulsion nor psychotropic action was observed”.
As to `C=C1CN(c2nc3c(cc2F)c(=O)c(C(=O)O)cn3C2CC2)CC1N` (stereo not drawn) [Compound I-4, 1-Cyclopropyl-6-fluoro-7-(3-amino-4-methylenepyrrolidin-1-yl)-1,4-dihydro-4-oxo-1,8-naphthyridine-3-carboxylic acid], the MIC in data set [1] was 0.1 µg/mL (≈ 0.29 µM); in data set [2] it was 0.1 µg/mL (≈ 0.29 µM); in data set [3], less than 0.003 µg/mL; in data set [4] it was 0.006 µg/mL (≈ 0.0174 µM).
Consider `C=C1CN(c2c(F)cc3c(=O)c(C(=O)O)cn(C4CC4)c3c2F)CC1NC` (stereo not drawn) [Compound I-5, 1-Cyclopropyl-6,8-difluoro-7-(3-methylamino-4-methylenepyrrolidin-1-yl)-1,4-dihydro-4-oxo-3-quinolinecarboxylic acid], for which the MIC in data set [1] is 0.05 µg/mL (≈ 0.133 µM); in data set [2], 0.05 µg/mL (≈ 0.133 µM); in data set [3], less than 0.003 µg/mL; in data set [4], 0.006 µg/mL (≈ 0.016 µM).
As for `C=C1CN(c2c(F)cc3c(=O)c(C(=O)O)cn(C4CC4)c3c2Cl)CC1N` (stereo not drawn) [Compound I-2, 1-Cyclopropyl-8-chloro-6-fluoro-7-(3-amino-4-methylenepyrrolidin-1-yl)-1,4-dihydro-4-oxo-3-quinolinecarboxylic acid], the MIC in data set [1] was 0.01 µg/mL (≈ 0.0265 µM); in data set [2] it was 0.02 µg/mL (≈ 0.0529 µM); in data set [3] it was less than 0.003 µg/mL; in data set [4], less than 0.003 µg/mL.
